For the first series, the target named is purified human Factor XIa (Homo sapiens (Human), UniProt P03951). Nature of the series: Factor XIa assay (chromogenic substrate S-2366 hydrolysis, Ki). Format: biochemical. Particulars: substrate S-2366, pH 7.4. The procedure:
The effectiveness of compounds of the present invention as inhibitors of the coagulation Factors XIa, VIIa, IXa, Xa, XIIa, plasma kallikrein or thrombin, can be determined using a relevant purified serine protease, respectively, and an appropriate synthetic substrate. The rate of hydrolysis of the chromogenic or fluorogenic substrate by the relevant serine protease was measured both in the absence and presence of compounds of the present invention. […] A decrease in the rate of absorbance or fluorescence change in the presence of inhibitor is indicative of enzyme inhibition. Such methods are known to one skilled in the art. The results of this assay are expressed as the inhibitory constant, Ki.
Factor XIa determinations were made in 50 mM HEPES buffer at pH 7.4 containing 145 mM NaCl, 5 mM KCl, and 0.1% PEG 8000 (polyethylene glycol; JT Baker or Fisher Scientific). Determinations were made using purified human Factor XIa at a final concentration of 25-200 pM (Haematologic Technologies) and the synthetic substrate S-2366 (pyroGlu-Pro-Arg-pNA; CHROMOGENIX® or AnaSpec) at a concentration of 0.0002-0.001 M.
Values of Ki were determined by allowing the protease to react with the substrate in the presence of the inhibitor. Reactions were allowed to go for periods of 20-180 minutes (depending on the protease) and the velocities (rate of absorbance or fluorescence change versus time) were measured. The following relationships were used to calculate Ki values: (vo−vs)/vs=I/(Ki(1+S/Km)) for a competitive inhibitor with one binding site; or vs/vo=A+((B−A)/1+((IC50/(I)0))); and Ki=IC50/(1+S/Km) for a competitive inhibitor where: […]
purified human Factor XIa, sequence (P03951 388-625): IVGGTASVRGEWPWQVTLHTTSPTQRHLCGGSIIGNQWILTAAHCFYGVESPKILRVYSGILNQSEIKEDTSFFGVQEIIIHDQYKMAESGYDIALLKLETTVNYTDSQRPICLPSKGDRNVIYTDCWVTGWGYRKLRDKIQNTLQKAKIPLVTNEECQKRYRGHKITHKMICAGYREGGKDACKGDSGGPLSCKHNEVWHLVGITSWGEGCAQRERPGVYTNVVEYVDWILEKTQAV
purified human Factor XIa, sequence (P03951 19-387 partner): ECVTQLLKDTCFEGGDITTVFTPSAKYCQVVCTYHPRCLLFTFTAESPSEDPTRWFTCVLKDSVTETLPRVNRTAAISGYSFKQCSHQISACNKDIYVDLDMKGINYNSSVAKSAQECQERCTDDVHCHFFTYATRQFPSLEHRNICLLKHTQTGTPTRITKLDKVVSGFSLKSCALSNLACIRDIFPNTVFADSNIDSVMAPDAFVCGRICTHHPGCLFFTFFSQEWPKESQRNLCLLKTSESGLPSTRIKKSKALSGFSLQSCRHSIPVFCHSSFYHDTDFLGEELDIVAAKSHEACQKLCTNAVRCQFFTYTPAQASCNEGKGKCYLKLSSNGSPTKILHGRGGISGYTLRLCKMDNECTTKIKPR
`COC(=O)Nc1ccc2c(c1)NC(=O)CCc1nc(ccc1F)CC(NC(=O)/C=C/c1cc(Cl)ccc1C(C)=O)c1nc-2c[nH]1` (centres unmarked) [Example 140, Methyl N-{3-[(2E)-3-(2-acetyl-5-chlorophenyl)prop-2-enamido]-19-fluoro-15-oxo-5,14,22,23-tetraazatetracyclo[16.3.1.1^4,7.0^8,13]tricosa-1(22),4(23),6,8,10,12,18,20-octaen-11-yl}carbamate]: the Ki is under 5 nM.

Regarding `COC(=O)Nc1ccc2c(c1)NC(=O)CCc1nc(ccc1F)CC(NC(=O)/C=C/c1cc(Cl)ccc1-n1cnnn1)c1nc-2cn1C` (centres unmarked) [III-33], the Ki was determined as 103 nM.

Take `COC(=O)Nc1ccc2c(c1)NC(=O)CCc1nc(ccc1F)CC(NC(=O)c1c(F)cc(C)cc1F)c1nc-2c[nH]1` (centres unmarked) [Example 142, Methyl N-{3-[(2,6-difluoro-4-methylbenzene)amido]-19-fluoro-15-oxo-5,14,22,23-tetraazatetracyclo[16.3.1.1^4,7.0^8,13]tricosa-1(22),4(23),6,8,10,12,18,20-octaen-11-yl}carbamate]: the affinity, expressed as Ki, was 145 nM. The same measure, in the same setting: then `COC(=O)Nc1ccc2c(c1)NC(=O)CCc1nc(ccc1F)CC(NC(=O)[C@H]1CC[C@H](C)CC1)c1nc-2c[nH]1` (some centres unmarked) [Example 143, Methyl N-{19-fluoro-3-[(4-methylcyclohexane)amido]-15-oxo-5,14,22,23-tetraazatetracyclo[16.3.1.1^4,7.0^8,13]tricosa-1(22),4(23),6,8,10,12,18,20-octaen-11-yl}carbamate], with 1310 nM; and `COC(=O)Nc1ccc2c(c1)CCCCc1ccc(cc1)C[C@H](NC(=O)/C=C/c1cc(Cl)ccc1-n1cnnn1)c1nc-2c[nH]1` [Example 111], with 71 nM. On the same count and under the same terms, for `COC(=O)Nc1ccc2c(c1)NC[C@@H]1CCN(C1)C(=O)C[C@H](NC(=O)/C=C/c1cc(Cl)ccc1-n1cnnn1)c1nc-2c[nH]1` [Example 86] the value was 2390 nM; for `O=C(/C=C/c1cc(Cl)ccc1-n1cnnn1)N[C@H]1C/C=C/CCOc2ccccc2-c2c[nH]c1n2` [Example 1, (E)-3-(5-Chloro-2-tetrazol-1-yl-phenyl)-N-(E)-(S)-8-oxa-16,18-diaza-tricyclo[13.2.1.0^2,7]octadeca-1(17),2,4,6,11,15(18)-hexaen-14-yl-acrylamide], 2980 nM. Take `COC(=O)Nc1ccc2c(c1)CCCCc1cccc(c1)C[C@H](NC(=O)/C=C/c1cc(Cl)ccc1-n1cnnn1)c1nc-2c(Cl)[nH]1` [Example 102]: the Ki was found to be 8.16 nM. The same measure, in the same setting: for `COC(=O)Nc1ccc2c(c1)NC(=O)CCCC[C@H](NC(=O)/C=C/c1cc(Cl)ccc1-n1cnnn1)c1nc-2c[nH]1` [Example 10, {(S)-14-[(E)-3-(5-Chloro-2-tetrazol-1-yl-phenyl)-acryloylamino]-9-oxo-8,16,18-triaza-tricyclo[13.2.1.0^2,7]octadeca-1(17),2,4,6,15(18)-pentaen-5-yl}-carbamic acid methyl ester] the value was under 5 nM.

Test system in a further series: not given
Assay: not given
Particulars: from C=CCCCc1ccccc1-c1cn(COCC[Si](C)(C)C)c([C@H](CC=C)NC(=O)OC(C)(C)C)n1; rcm bond; 12-membered ring; Grubbs II (0.4 eq)/pTsOH.H2O; DCM; 0.97 mM; 40.0 °C.
As to `CC(C)(C)OC(=O)N[C@H]1CC=CCCCc2ccccc2-c2cn(COCC[Si](C)(C)C)c1n2`, the ring closure, isolated yield is 45.3%.

Still in this series, the particulars now being: from COC(=O)Nc1ccc(-c2cnc(C(Cc3ccc(F)c(CCC(=O)O)n3)NC(=O)OC(C)(C)C)o2)c(N)c1; amide bond; 14-membered ring; BOP/DMAP/DIEA; DCM/DMF; 1.1 mM; 25.0 °C; 16.0 h.
`COC(=O)Nc1ccc2c(c1)NC(=O)CCc1nc(ccc1F)CC(NC(=O)OC(C)(C)C)C1=NC=C2O1` (centres unmarked) registered a ring closure, isolated yield of 23%.

For orientation: Ki means the equilibrium dissociation constant of an inhibitor or competing ligand from its target. A lower Ki goes with higher affinity.

Source of the values: patent US8828983B2, “Macrocycles as factor XIa inhibitors” (Bristol-Myers Squibb Company, priority 2010, dated 2014).
